Among the data in US9844536B2, “3-(1H-imidazo[4,5-C]pyridin-2-yl)-1H-pyrazolo[3,4-C]pyridine and therapeutic uses thereof” (Samumed, LLC, priority 2014, dated 2017) are IC50 and EC50 values, retold here.

For assay [1], the system named is Wnt pathway (Sp5-Luc reporter, SW480 cells). Kind of assay: Sp5-Luc reporter gene screening assay for Wnt activity in SW480 colon carcinoma cells. It is filed as cell-based. As to conditions: Homo sapiens. From the text: The screening assay for Wnt activity is described as follows. Reporter cell lines can be generated by stably transducing cancer cell lines (e.g., colon cancer) or primary cells (e.g., IEC-6 intestinal cells) with a lentiviral construct that includes a Wnt-responsive promoter driving expression of the firefly luciferase gene.
SW480 colon carcinoma cells were transduced with a lentiviral vector expressing luciferase with a human Sp5 promoter consisting of a sequence of eight TCF/LEF binding sites. SW480 cells stably expressing the Sp5-Luc reporter gene and a hygromycin resistance gene were selected by treatment with 150 μg/ml of hygromycin for 7 days. These stably transduced SW480 cells were expanded in cell culture and used for all further screening activities. For Sp5-Luc reporter gene assays, the cells were plated at 10,000 cells/well in 96-well plates with growth medium containing 10% fetal calf serum and incubated overnight at 37° C. and 5% CO2. Each compound was dissolved in DMSO as a 10 mM stock in standard j-vials and used to prepare compound source plates in dose-response format with 3-fold serial dilutions and a 10 mM top concentration. Compound transfer from serially diluted source plates to assay plates containing the cells was accomplished using a pintool (Multimek 96, Beckman equipped with V&P Scientific FP1S50H pins) based liquid handling protocol. This protocol used a slotted pin to transfer 50 nl of compound from a source plate well to an assay plate well containing 50 μl of cells in growth medium. […] Control wells received 50 nl of DMSO treatment for normalization and calculating IC50 values. The treated cells were incubated at 37° C. and 5% CO2 for an additional forty-two hours. Following incubation, the growth medium was removed and 50 μl of BrightGlo luminescence reagent (Promega) was added to each well of the 96-well assay plates. The plates were placed on an orbital shaker for 5 min and then luminescence was quantified on the Victor3 (Perkin Elmer) plate reader. Readings were normalized to DMSO only treated cells, and normalized activities were utilized for IC50 calculations using the dose-response log (inhibitor) vs. response-variable slope (four parameters) nonlinear regression feature available in GraphPad Prism 5.0 or 6.0.

Assay [2] concerns LL29 cells. The experiment in a line: Inhibition of the fibrotic process (αSMA staining) in TGF-β1 treated primary human fibroblasts from IPF patients. It is filed as cell-based. As to conditions: Fibroblast, 96 h, TGF-β1 20 ng/mL, 4 days, dose-response 10 μM to 1.87 nM, read-out: Inhibition of fibrosis EC50. From the text:
The above synthesized compounds were screened using primary human fibroblasts (derived from IPF patients) treated with TGF-β1 to determine their ability to inhibit the fibrotic process.
Primary human fibroblasts derived from IPF patients (LL29 cells) [^1Xiaoqiu Liu, et. al., “Fibrotic Lung Fibroblasts Show Blunted Inhibition by cAMP Due to Deficient cAMP Response Element-Binding Protein Phosphorylation”, Journal of Pharmacology and Experimental Therapeutics (2005), 315(2), 678-687; ^2Watts, K. L., et. al., “RhoA signaling modulates cyclin D1 expression in human lung fibroblasts; implications for idiopathic pulmonary fibrosis”, Respiratory Research (2006), 7(1), 88] were obtained from American Type Culture Collection (ATCC) and expanded in F12 medium supplemented with 15% Fetal Bovine Serum and Penicillin/Streptomycin.
Each compound was dissolved in DMSO as a 10 mM stock and used to prepare compound source plates. Serial dilution (1:2, 11-point dose-response curves from 10 μM to 1.87 nM) and compound transfer was performed using the ECHO 550 (Labcyte, Sunnyvale, Calif.) into 384-well clear bottom assay plates (Greiner Bio-One) with appropriate DMSO backfill for a final DMSO concentration of 0.1%. LL29 cells were plated at 1,500 cells/well in 80 μl/well F12 medium supplemented with 1% Fetal Bovine Serum. One hour after addition of the cells, TGF-β1 (Peprotech; 20 ng/mL) was added to the plates to induce fibrosis (ref. 1 and 2 above). Wells treated with TGF-β1 and containing DMSO were used as controls. Cells were incubated at 37° C. and 5% CO2 for 4 days. Following incubation for 4 days, SYTOX green nucleic acid stain (Life Technologies [Thermo Fisher Scientific]) was added to the wells at a final concentration of 1 uM and incubated at room temperature for 30 min. Cells were then fixed using 4% formaldehyde (Electron Microscopy Sciences), washed 3 times with PBS followed by blocking and permeabilization using 3% Bovine Serum Albumin (BSA; Sigma) and 0.3% Triton X-100 (Sigma) in PBS. Cells were then stained with antibody specific to α-smooth muscle actin (αSMA; Abcam) (ref. 1 and 2 above) in 3% Bovine Serum Albumin (BSA; Sigma) and 0.3% Triton X-100 (Sigma) in PBS, and incubated overnight at 4° C. Cells were then washed 3 times with PBS, followed by incubation with Alexa Flor-647 conjugated secondary antibody (Life Technologies [Thermo Fisher Scientific]) and DAPI at room temperature for 1 hour. Cells were then washed 3 times with PBS and plates were sealed for imaging. αSMA staining was imaged by excitation at 630 nm and emission at 665 nm and quantified using the Compartmental Analysis program on the CellInsight CX5 (Thermo Scientific). Dead or apoptotic cells were excluded from analysis based on positive SYTOX green staining. % of total cells positive for αSMA were counted in each well and normalized to the average of 11 wells treated with TGF-31 on the same plate using Dotmatics' Studies Software. The normalized averages (fold change over untreated) of 3 replicate wells for each compound concentration were used to create dose-responses curves and EC50 values were calculated using non-linear regression curve fit in the Dotmatics' Studies Software. The EC50 values are reported.

In assay [1], `CCNCc1cncc(-c2cc3c(-c4nc5c(-c6ccccn6)nccc5[nH]4)n[nH]c3cn2)c1` [Compound 136, N-((5-(3-(4-(Pyridin-2-yl)-1H-imidazo[4,5-c]pyridin-2-yl)-1H-pyrazolo[3,4-c]pyridin-5-yl)pyridin-3-yl)methyl)ethanamine] came in with an IC50 of 834 nM. For the same molecule, the EC50 in assay [2] was no more than 9 nM.
Regarding `O=C(Nc1cncc(-c2cc3c(-c4nc5c(-c6ccccn6)nccc5[nH]4)n[nH]c3cn2)c1)C1CCC1` [Compound 150, N-(5-(3-(4-(Pyridin-2-yl)-1H-imidazo[4,5-c]pyridin-2-yl)-1H-pyrazolo[3,4-c]pyridin-5-yl)pyridin-3-yl)cyclobutanecarboxamide], the IC50 in assay [1] was 71.5 nM. Besides, in assay [2], the EC50 came out at 1050 nM.
The corresponding values for `c1ccc(-c2nccc3[nH]c(-c4n[nH]c5cnc(-c6cncc(CNCC7CCCC7)c6)cc45)nc23)nc1` [Compound 154, 1-Cyclopentyl-N-((5-(3-(4-(pyridin-2-yl)-1H-imidazo[4,5-c]pyridin-2-yl)-1H-pyrazolo[3,4-c]pyridin-5-yl)pyridin-3-yl)methyl)methanamine] are 219 nM and 140 nM.
The molecule `CCC(=O)Nc1cncc(-c2cc3c(-c4nc5c(N6CCCCC6)nccc5[nH]4)n[nH]c3cn2)c1` [Compound 157, N-(5-(3-(4-(Piperidin-1-yl)-1H-imidazo[4,5-c]pyridin-2-yl)-1H-pyrazolo[3,4-c]pyridin-5-yl)pyridin-3-yl)propionamide] returned a concentration for half-maximal inhibition (IC50) in assay [1] of 144 nM. For the same molecule, in assay [2], the EC50 turned out to be 347 nM.
For `CN(C)c1cncc(-c2cc3c(-c4nc5c(N6CCCCC6)nccc5[nH]4)n[nH]c3cn2)c1` [Compound 163, N,N-Dimethyl-5-(3-(4-(piperidin-1-yl)-1H-imidazo[4,5-c]pyridin-2-yl)-1H-pyrazolo[3,4-c]pyridin-5-yl)pyridin-3-amine] the same measures were 312 nM and no more than 9 nM.
The corresponding values for `CN(C)Cc1cncc(-c2cc3c(-c4nc5c(N6CCCCC6)nccc5[nH]4)n[nH]c3cn2)c1` [Compound 169, N,N-Dimethyl-1-(5-(3-(4-(piperidin-1-yl)-1H-imidazo[4,5-c]pyridin-2-yl)-1H-pyrazolo[3,4-c]pyridin-5-yl)pyridin-3-yl)methanamine] are greater than 10000 nM and 3110 nM.
The corresponding values for `O=C(Nc1cncc(-c2cc3c(-c4nc5c(N6CCCCC6)nccc5[nH]4)n[nH]c3cn2)c1)C1CC1` [Compound 175, N-(5-(3-(4-(Piperidin-1-yl)-1H-imidazo[4,5-c]pyridin-2-yl)-1H-pyrazolo[3,4-c]pyridin-5-yl)pyridin-3-yl)cyclopropanecarboxamide] are 636 nM and no more than 9 nM.
Turning to `CC(C)C(=O)Nc1cncc(-c2cc3c(-c4nc5c(N6CCN(C)CC6)nccc5[nH]4)n[nH]c3cn2)c1` [Compound 217], in assay [1], it took 1080 nM to reach half-maximal inhibition (IC50). Also, the EC50 in assay [2] is no less than 9990 nM.
For `CN1CCN(c2nccc3[nH]c(-c4n[nH]c5cnc(-c6cncc(CN7CCCCC7)c6)cc45)nc23)CC1` [Compound 223, 3-(4-(4-Methylpiperazin-1-yl)-1H-imidazo[4,5-c]pyridin-2-yl)-5-(5-(piperidin-1-ylmethyl)pyridin-3-yl)-1H-pyrazolo[3,4-c]pyridine] the same measures were greater than 10000 nM and no less than 9990 nM.
Turning to `CN1CCN(c2nccc3[nH]c(-c4n[nH]c5cnc(-c6cncc(NC(=O)C7CCCC7)c6)cc45)nc23)CC1` [Compound 229, N-(5-(3-(4-(4-Methylpiperazin-1-yl)-1H-imidazo[4,5-c]pyridin-2-yl)-1H-pyrazolo[3,4-c]pyridin-5-yl)pyridin-3-yl)cyclopentanecarboxamide], in assay [1], the IC50 was greater than 10000 nM. For the same molecule, the EC50 in assay [2] is no less than 9990 nM.
For `CN1CCN(c2nccc3[nH]c(-c4n[nH]c5cnc(-c6cncnc6)cc45)nc23)CC1` [Compound 234, 3-(4-(4-Methylpiperazin-1-yl)-1H-imidazo[4,5-c]pyridin-2-yl)-5-(pyrimidin-5-yl)-1H-pyrazolo[3,4-c]pyridine] the same measures were 745 nM and 1380 nM.
`c1cncc(-c2cc3c(-c4nc5cnccc5[nH]4)n[nH]c3cn2)c1` [Compound 238, 3-(1H-Imidazo[4,5-c]pyridin-2-yl)-5-(pyridin-3-yl)-1H-pyrazolo[3,4-c]pyridine] returned an IC50 in assay [1] of 66.5 nM. For the same molecule, the EC50 in assay [2] is no less than 9990 nM.
In assay [1], `O=C(Cc1ccccc1)Nc1cncc(-c2cc3c(-c4nc5cnccc5[nH]4)n[nH]c3cn2)c1` [Compound 244, N-(5-(3-(1H-Imidazo[4,5-c]pyridin-2-yl)-1H-pyrazolo[3,4-c]pyridin-5-yl)pyridin-3-yl)-2-phenylacetamide] had an IC50 of 1300 nM. Moreover, the EC50 in assay [2] was no less than 9990 nM.
`O=C(Nc1cncc(-c2cc3c(-c4nc5cnccc5[nH]4)n[nH]c3cn2)c1)C1CCCCC1` [Compound 256, N-(5-(3-(1H-Imidazo[4,5-c]pyridin-2-yl)-1H-pyrazolo[3,4-c]pyridin-5-yl)pyridin-3-yl)cyclohexanecarboxamide] yielded a half-inhibitory concentration (IC50) in assay [1] of 532 nM. In addition, the EC50 in assay [2] was no less than 9990 nM.
Molecule `CC(C)CC(=O)Nc1cncc(-c2cc3c(-c4nc5c(-c6ccsc6)nccc5[nH]4)n[nH]c3cn2)c1` [Compound 262, 3-Methyl-N-(5-(3-(4-(thiophen-3-yl)-1H-imidazo[4,5-c]pyridin-2-yl)-1H-pyrazolo[3,4-c]pyridin-5-yl)pyridin-3-yl)butanamide] came in with an IC50 in assay [1] of 139 nM. Moreover, in assay [2], the EC50 is no less than 9990 nM.
For `Cc1ccncc1-c1cc2c(-c3nc4c(-c5ccsc5)nccc4[nH]3)n[nH]c2cn1` [Compound 265, 5-(4-Methylpyridin-3-yl)-3-(4-(thiophen-3-yl)-1H-imidazo[4,5-c]pyridin-2-yl)-1H-pyrazolo[3,4-c]pyridine] the same measures were 59.9 nM and 157 nM.
The corresponding values for `CC(C)(C)C(=O)Nc1cncc(-c2cc3c(-c4nc5c(-c6ccsc6)nccc5[nH]4)n[nH]c3cn2)c1` [Compound 268, N-(5-(3-(4-(Thiophen-3-yl)-1H-imidazo[4,5-c]pyridin-2-yl)-1H-pyrazolo[3,4-c]pyridin-5-yl)pyridin-3-yl)pivalamide] are 41.3 nM and no less than 9990 nM.
In turn, `O=C(Nc1cncc(-c2cc3c(-c4nc5c(-c6ccsc6)nccc5[nH]4)n[nH]c3cn2)c1)c1ccccc1` [Compound 271, N-(5-(3-(4-(Thiophen-3-yl)-1H-imidazo[4,5-c]pyridin-2-yl)-1H-pyrazolo[3,4-c]pyridin-5-yl)pyridin-3-yl)benzamide] gave an IC50 in assay [1] of 189 nM. Also, the EC50 in assay [2] is no more than 9 nM.
